Results: patent publication US20060079575A1, “Gamma-butyrolactone compound and pharmaceutical composition thereof” (priority 2003, published 2006)
In brackets after ≈: the same amount, converted by molar mass. Like-named read-outs stand apart in the source and are kept apart here.

Columns and labels:
p21 and p53 = assay: Western blotting of p21 and p53, A549; assay type: cell-based, human
Description: FIG. 5 is a western blot analysis diagram showing the amount of tumor suppressors: p21 and p53 expressed in A 549 cells either untreated (B), treated with DMSO (D) or BS-AE, BS-ME, BS-WE, isochaihulactone (BS-1), or chaihulactone (BS-2) for 1 day (1D) or 3 days (3D);

telomerase [1] = assay: Telomerase activity of treated tumor cell lines; assay type: cell-based; settings: cell lines of human lung cancer, hepatoma, malignant glioblastoma, colorectal carcinoma
Method: A prominent cytotoxic effect was shown when the γ-butyrolactone heterocyclic compound and pharmaceutical composition thereof are added to the Paclitaxel-resistant tumor cell lines, indicating Bupleurum scorzonerifolium indeed contain active components for inhibiting tumor growth. The active components for inhibiting tumor growth refer to the novel compound and pharmaceutical composition thereof having a γ-core and having a Z or E configuration for its carbon 2(5) location at the core.

[2] = tested on: A549 (lung cancer cell line); assay: MTT cytotoxicity assay, A549; assay type: cell-based, human; settings: 24 hr
Description: (§1) MTT assay is used to test the cytotoxic effect of BS-AE, BS-ME, BS-HE, BS-CE and BS-WE on human lung cancer cell line A549. […] According to the extraction process “BS-AE→BS-MWE→BS-CE” all of the crude extracts contain tumor inhibitory components. In order to further isolate the tumor inhibitory components from Bupleurum scorzonerifolium extract, a “Chromatography” step is further employed to isolate the BS-CE.
(§2) It is known from the experimental result of this invention, BS-AE containing the γ-butyrolactone compound and pharmaceutical composition thereof have significant growth inhibitory effect on human hepatoma, lung cancer, ovarian cancer, breast cancer, malignant glioblastoma and colorectal carcinoma cells.

[3] = tested on: WI-38 (embryonic fibroblast cell line); assay: MTT cytotoxicity assay, WI-38; assay type: cell-based; settings: 24 hr
A549-T12 cells [4] = assay: Annexin V-FLOUS/PI flow cytometry (apoptosis), A549-T12; assay type: cell-based, human; settings: A549-T12, 8 μg/ml, 48 hours; untreated 6.8%
Description: FIGS. 9A through to 9D are cytograms showing the extent of cell apoptosis detected using flow cytometry for Paclitaxel-resistant human lung cancer cell lines (A549-T12 cells) either untreated, treated with BS-AE, isochalihulactone (BS-8), or isokaerophyllin ([…] fluorescence intensity of tumor cells bound with Annexin V-FLOUS antibodies; and Y-axis indicates fluorescence intensity of tumor cells bound with PI antibodies);
The following embodiments are described with Paclitaxel-resistant tumor cell A549-T12 (passage cultured from lung cancer cell line A549 cells with low concentration of Paclitaxel) as an example to test the effect of BS-AE and its pure compounds BS-8 and BS-15 (these represent isochaihulactone and chaihulactone analogues) on A549-T12 cells. Flow cytometry, drug toxicity test, and histological sections are adopted to evaluate cytotoxic effect of the γ-butyrolactone compound and pharmaceutical composition thereof on Paclitaxel-resistant tumor cells.
FIGS. 9A through to 9D are flow cytometry results illustrating a comparison of the change of Annexin V-FLOUS and PI for untreated group with that of the group treated with 100 nM of Paclitaxel, 30 μg/ml BS-AE, 8 μg/ml BS-8 and 8 μg/ml BS-15 to A549-T12. […]

A549-T12 cells [5] = assay: MTT assay A549-T12, 24 and 48 hrs (FIG. 10); assay type: cell-based, human; settings: Paclitaxel-resistant lung cancer cell line
Method: FIGS. 10A through to 10C illustrate results of MTT assays for A549-T12 cells treated with BS-AE, isochaihulactone (BS-8), and isokaerophyllin (BS-15) respectively for 24 hrs and 48 hrs;
Besides, after BS-AE, BS-8, and BS-15 are added to Paclitaxel-resistant lung cancer cell line for 48 hours, viability ratio of tumor cells is reduced as illustrated in FIGS. 10A through to 10C. So, in view of IC50 or ED50, the cytotoxic effect of purified chaihulactone analog on the tumor cells is […] than BS-AE. […] Furthermore, a substantially low dose (1.5 μg/ml) of the compound is all that requires to induce apoptosis for the tumor cells.

[6] = tested on: A549-T12 (taxol resistant A549 subline); assay: MTT cytotoxicity assay, A549-T12; assay type: cell-based, human; settings: 24 hr
[7] = tested on: HT29 (colon cancer cell line); assay: MTT cytotoxicity assay, HT29; assay type: cell-based, human; settings: 24 hr
Description: as §1, §2

[8] = tested on: OVCAR-3 (ovarian cancer cell line); assay: MTT cytotoxicity assay, OVCAR-3; assay type: cell-based; settings: Homo sapiens, OVCAR-3, read-out: IC 50, OVCAR-3; 24 hr
Description: as §1, §2

[9] = tested on: J5 (hepatocellular carcinoma); assay: MTT cytotoxicity assay, J5; assay type: cell-based; settings: Homo sapiens, read-out: IC 50, J 5; heading: IC 50, J 5; 24 hr
Description: as §1, §2

[10] = tested on: Hep G2 (Hepatocellular carcinoma); assay: MTT cytotoxicity assay, Hep G2; assay type: cell-based; settings: Homo sapiens, HepG2, read-out: IC 50, HepG2; heading: IC 50, HepG2; 24 hr
Description: as §1, §2

[11] = tested on: MCF 7 (breast cancer cell line); assay: MTT cytotoxicity assay, MCF 7; assay type: cell-based; settings: Homo sapiens, MCF7, read-out: IC 50, MCF 7; 24 hr
Description: as §1, §2

[12] = tested on: DBTRG-05MG (glioblastoma multiforme); assay: MTT cytotoxicity assay, DBTRG-05MG; assay type: cell-based; settings: Homo sapiens, read-out: IC 50, DBTRG-05MG, 24 hr
Description: as §1, §2

A549 cells [13] = assay: Annexin V-FLOUS/PI flow cytometry (apoptosis), A549; assay type: cell-based, human; settings: A549, 20 μM, cultured 48 hours; untreated 3.8%
Method: FIGS. 3A through to FIG. 3C are cytograms showing the extent of cell apoptosis detected using flow cytometry for A 549 cells either untreated, treated with 20 μM of isochalihulactone, or 60 μg/ml of BS-AE and cultured for 48 hrs (wherein X-axis indicates fluorescence intensity of tumor cells bound with Annexin V-FLOUS antibodies; and Y-axis indicates fluorescence intensity of tumor cells bound with PI antibodies);
In the example of using cell line A549, untreated A549 cells, A549 cells treated with 20 μM of Isochaihulactone and A549 cells treated with 60 μg/ml of BS-AE are cultured 48 hours before utilizing flow cytometry to detect the staining results between Annexin V-FLOUS and PI. In FIGS. 3A through to 3C, X-axis represents the fluorescent brightness of tumor cells with antibody Annexin V-FLOUS, and Y-axis represents the fluorescent brightness of tumor cells with antibody PI.

telomerase [14] = assay: Inhibition of telomerase activity in Paclitaxel-resistant tumor cells; assay type: cell-based, human; settings: Paclitaxel-resistant tumor cells (A549-T12)
Description: Furthermore, after crude Bupleurum scorzonerifolium is processed according to the above-mentioned manufacturing method, its tumor inhibitory effect is more prominent.

A549 cells [15] = assay: Cell cycle by flow cytometry, A549; assay type: cell-based, human
Description: FIGS. 2A through to FIG. 2D illustrate the cell cycle peak change detected using flow cytometry for A549 cells treated with Bupleurum scorzonerifolium extracts: acetone extract (BS-AE), methanol extract (BS-ME) and water extract (BS-WE) isolated according to the extracting method of the invention;
FIG. 4 is a bar chart showing cell cycle changes detected using flow cytometry for A549 cells untreated, treated with BS-AE, isochaihulactone (BS-8), and Paclitaxel;
Furthermore, flow cytometry is employed to observe the changes in cell cycle before and after the addition of different extracts from Bupleurum scorzonerifolium to A549 cells. In FIGS. 2A through to 2D, X-axis represents chromosome numbers (2N, 4N, etc.) of tumor cells in contact with the antibody, Y-axis represents the fluorescent brightness of Fluorescein Isothiocyanate (FITC). […] This effect is most significant for BS-AE.

β-tubulin = assay: Western blot of soluble and particular β-tubulin, A549; assay type: cell-based, human; settings: A549, FIG. 7
Description: FIG. 7 is a western blot analysis diagram showing expression of soluble (S) and particular (P) form of β-tubulin in A549 cells either untreated (C), treated with BS-AE, isochaihulactone (BS-8), Paclitaxel, or Vinblastine;
[…] is then used to analyze the change of cytoskeleton of tumor cell lines treated with Bupleurum scorzonerifolium extract. […] Then, a polymerization event is observed before and after the treatment of BS-AE.

Question: What does the source list for COc1cc(/C=C2/C(=O)OC[C@@H]2Cc2ccc3c(c2)OCO3)cc(OC)c1OC [Component 3, Chaihulactone]?
Answer: expression level of tumor suppressor p21 and p53 (p21 and p53): significant increase; reduction of telomerase activity vs untreated control (telomerase [1]): 5 times

Question: Which “IC 50, A549” value [2] does the source give for N.N.[Cl][Pt][Cl] [Cisplatin, cisdiammine dichloroplatinum] here?
Answer: 17200 ± 2700 µg/mL

Question: What about the “IC 50, WI 38” value [3] of the same molecule?
Answer: 21300 ± 4500 µg/mL

Question: For COc1ccc(/C=C2\C(=O)OC[C@@H]2Cc2ccc3c(c2)OCO3)cc1OC [BS-15, Isokaerophyllin], which “tumor cells coupled to Annexin V” value (A549-T12 cells [4]) is on record?
Answer: 23.1%

Question: And the “viability ratio of tumor cells” value (A549-T12 cells [5])?
Answer: reduced

Question: With COc1cc(/C=C2\C(=O)OC[C@@H]2Cc2ccc3c(c2)OCO3)cc(OC)c1OC [BS-8, Isochaihulactone] as the molecule, how does the IC50 ([2]; Homo sapiens, A549, read-out: IC 50, A549) read?
Answer: 8 ± 0.8 µg/mL

Question: What about the IC50 ([6]; Homo sapiens, A549, read-out: IC 50, A549-T12, heading: IC 50, A549-T12) of the same molecule?
Answer: 1.7 ± 0.3 µg/mL

Question: And the IC50 ([7]; Homo sapiens, HT-29, read-out: IC 50, HT 29, heading: IC 50, HT 29)?
Answer: 5 ± 0.8 µg/mL

Question: What about the IC50 [8] of the same molecule?
Answer: 7.2 ± 1.2 µg/mL (≈ 18.1 µM)

Question: What about the IC50 [9] of the same molecule?
Answer: 3.5 ± 0.7 µg/mL (≈ 8.78 µM)

Question: And the IC50 [10]?
Answer: 5.5 ± 0.5 µg/mL (≈ 13.8 µM)

Question: And the IC50 [11]?
Answer: 8 ± 0.8 µg/mL (≈ 20.1 µM)

Question: And the IC50 [12]?
Answer: 7.5 ± 1 µg/mL (≈ 18.8 µM)

Question: What about the “tumor cells coupled to Annexin V” value (A549 cells [13]) of the same molecule?
Answer: 32.7%

Question: What about the “tumor cells coupled to Annexin V” value (A549-T12 cells [4]) of the same molecule?
Answer: 30.6%

Question: And the “effective concentration for inhibiting telomerase activity” value (telomerase [14])?
Answer: about 1.2 μg/mL

Question: What about the cell cycle effect (A549 cells [15]) of the same molecule?
Answer: arrest at G2/M stage

Question: What about the “expression level of tumor suppressor p21 and p53” value (p21 and p53) of the same molecule?
Answer: significant increase

Question: What about the “particular form (polymerized β-microtubule)” value (β-tubulin) of the same molecule?
Answer: increases

Question: And the “soluble form (non-polymerized β-microtubule)” value (β-tubulin)?
Answer: significantly diminishes

Question: What about the “reduction of telomerase activity vs untreated control” value (telomerase [1]) of the same molecule?
Answer: 5 times

Question: And the “viability ratio of tumor cells” value (A549-T12 cells [5])?
Answer: reduced

Question: With paclitaxel [Taxol, reference compound] as the molecule, how does the IC50 ([2]; Taxol in nM, read-out: IC 50, A549) read?
Answer: 4 ± 0.6 nM

Question: And the IC50 ([6]; Taxol in nM, read-out: IC 50, A549-T12)?
Answer: 20 ± 2.7 nM

Question: What about the IC50 ([7]; Taxol in nM, read-out: IC 50, HT 29) of the same molecule?
Answer: 3 ± 0.5 nM
